Assay type in all cases: tissue-based
Assay [1] concerns the target T1, Mitogen-activated protein kinase 14 (Homo sapiens, UniProt Q16539). The assay can be described thus: Inhibition of p38 alpha MAPK in human whole blood assessed as phosphorylation of ATF-2 by immunosorbent non-radioactive enzyme assay.
Assay [2] concerns the target T1, Mitogen-activated protein kinase 14. Kind of assay: Inhibition of p38 alpha MAPK in human whole blood assessed as phosphorylation of ATF-2 by immunosorbent non-radioactive enzyme assay relative to SB203580.
Assay [3] shares this target. The assay can be described thus: Inhibition of p38 alpha MAPK in human whole blood assessed as suppression of LPS-induced TNF-alpha release by immunosorbent non-radioactive enzyme assay.
For assay [4] the target is unchanged. The assay can be described thus: Inhibition of p38 alpha MAPK in human whole blood assessed as suppression of LPS-induced TNF-alpha release by immunosorbent non-radioactive enzyme assay relative to SB203580.

Consider 18 molecules from ChEMBL document CHEMBL1773061, “Chiral sulfoxides as metabolites of 2-thioimidazole-based p38α mitogen-activated protein kinase inhibitors: enantioselective synthesis and biological evaluation” (J Med Chem, 2011).

What is called IC50 is the midpoint of a concentration-inhibition curve.

T1 sequence (Q16539 whole entry): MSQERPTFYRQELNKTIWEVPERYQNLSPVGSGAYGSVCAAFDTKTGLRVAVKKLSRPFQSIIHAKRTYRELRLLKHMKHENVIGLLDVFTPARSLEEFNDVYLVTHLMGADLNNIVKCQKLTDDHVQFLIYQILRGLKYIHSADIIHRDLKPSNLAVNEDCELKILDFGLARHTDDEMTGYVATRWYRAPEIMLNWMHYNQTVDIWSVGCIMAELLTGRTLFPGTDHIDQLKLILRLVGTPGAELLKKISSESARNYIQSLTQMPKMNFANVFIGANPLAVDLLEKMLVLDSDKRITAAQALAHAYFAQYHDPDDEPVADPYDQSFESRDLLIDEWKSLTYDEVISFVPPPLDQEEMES

`CSc1nc(-c2ccc(F)cc2)c(-c2ccnc(N[C@H](C)C(C)C)c2)[nH]1`: the IC50 in assay [1] stood at 40 nM; in assay [3], 180 nM. For the same molecule, the Ratio IC50 worked out at 1.8 in assay [2] and 8.67 in assay [4].
The like results for `CC(C)[S@@+]([O-])c1nc(-c2ccc(F)cc2)c(-c2ccnc(NC3CCCCC3)c2)[nH]1` were, in that order, 11 nM, 250 nM, 3.09 and 7.64.
As to `C[S@@+]([O-])c1nc(-c2ccc(F)cc2)c(-c2ccnc(NC(=O)Cc3ccc(F)cc3)c2)[nH]1`, the IC50 was determined as 77 nM in assay [1] and 6410 nM in assay [3]. Moreover, the Ratio IC50 in assay [2] was determined as 1; in assay [4], 0.27.
Consider `CC(C)Nc1cc(-c2[nH]c([S@+](C)[O-])nc2-c2ccc(F)cc2)ccn1`, for which the IC50 turned out to be 24 nM in assay [1] and 840 nM in assay [3]. Besides, the Ratio IC50 in assay [2] was 2.54; in assay [4], 2.29.
For `C[S+]([O-])c1nc(-c2ccc(F)cc2)c(-c2ccnc(NC(=O)Cc3ccc(F)cc3)c2)[nH]1` (racemic), in that order: 69 nM, 5550 nM, 1.16 and 0.31.
For `CSc1nc(-c2ccc(F)cc2)c(-c2ccnc(NC(C)C)c2)[nH]1`, in that order: 2 nM, 130 nM, 18 and 12.
As to `C[S@@+]([O-])c1nc(-c2ccc(F)cc2)c(-c2ccnc(NC3CCCCC3)c2)[nH]1`, the results for the IC50 in assay [1] and in assay [3] were 29 nM and 550 nM, respectively. Further, the Ratio IC50 stood at 2.55 in assay [2] and 3.09 in assay [4].
For `C[C@H](Nc1cc(-c2[nH]c([S@@+](C)[O-])nc2-c2ccc(F)cc2)ccn1)c1ccccc1`, in that order: 25 nM, 10000 nM, 1.12 and 0.16.
The like results for `C[S+]([O-])c1nc(-c2ccc(F)cc2)c(-c2ccnc(NC3CCOCC3)c2)[nH]1` (racemic) were, in that order, 12 nM, 340 nM, 4.67 and 3.62.
For `CC(C)[S+]([O-])c1nc(-c2ccc(F)cc2)c(-c2ccnc(NC3CCCCC3)c2)[nH]1` (racemic), in that order: 18 nM, 1080 nM, 2.17 and 1.72.
`CSc1nc(-c2ccc(F)cc2)c(-c2ccnc(N[C@@H](C)C(C)C)c2)[nH]1`: the IC50 in assay [1] was determined as 26 nM; in assay [3] it was 50 nM. Further, the Ratio IC50 in assay [2] worked out at 1.81; in assay [4], 31.2.
The like results for `CC(C)[C@@H](C)Nc1cc(-c2[nH]c([S+](C)[O-])nc2-c2ccc(F)cc2)ccn1` (mixture of isomers) were, in that order, 61 nM, 1340 nM, 1.18 and 0.92.
Regarding `CC(C)Nc1cc(-c2[nH]c([S+]([O-])C(C)C)nc2-c2ccc(F)cc2)ccn1` (racemic), the values for the IC50 in assay [1] and in assay [3] were 3 nM and 250 nM, respectively. Also, the Ratio IC50 in assay [2] is 5; in assay [4], 4.92.
`CC(C)Nc1cc(-c2[nH]c(SC(C)C)nc2-c2ccc(F)cc2)ccn1`: the IC50 came out at 4 nM in assay [1] and 120 nM in assay [3]. In addition, the Ratio IC50 in assay [2] is 3.75; in assay [4], 19.4.
For `CC(C)[C@H](C)Nc1cc(-c2[nH]c([S+](C)[O-])nc2-c2ccc(F)cc2)ccn1` (mixture of isomers), in that order: 17 nM, 150 nM, 3.41 and 10.4.
The like results for `CC(C)Nc1cc(-c2[nH]c([S+](C)[O-])nc2-c2ccc(F)cc2)ccn1` (racemic) were, in that order, 2 nM, 470 nM, 7.5 and 2.62.
The like results for `C[C@H](Nc1cc(-c2[nH]c([S+](C)[O-])nc2-c2ccc(F)cc2)ccn1)c1ccccc1` (mixture of isomers) were, in that order, 95 nM, 6280 nM, 0.53 and 0.25.
In the case of `C[S+]([O-])c1nc(-c2ccc(F)cc2)c(-c2ccnc(NC3CCCCC3)c2)[nH]1` (racemic), the values for the IC50 in assay [1] and in assay [3] were 34 nM and 620 nM, respectively. Besides, the Ratio IC50 in assay [2] came out at 1.68; in assay [4] it was 1.98.
